In patent US10702526B2, “Inhibitors of immune checkpoint modulators and related methods” (eFFECTOR Therapeutics, Inc., priority 2015, dated 2020):

System: T effector (CD3+/CD8+) and T regulatory (CD4+/FOXP3+) cells
Experiment: TE:Treg ratio in tumor infiltrating lymphocytes of CT26 allograft tumors (flow cytometry)
Assay type: in vivo, mouse
Details: TILs after 4 days of treatment
Experimental: Mice having established CT26 tumors (100-200 mm^3) were treated with compound 107, anti-PD1 antibody or a combination of compound 107 and anti-PD-1 antibody, as described in Example 4. After 4 days of treatment, the mice were euthanized and tumors were excised. A single cell suspension was generated by dissecting excised tumors into fine pieces with a razor blade, incubating with collagenase, hyaluronidase and DNAse I (Worthington Biochemical, Lakewood N.J.) in RPMI, incubating in 1× trypsin-EDTA, and finally passaging through a 70 micron cell strainer filter (BD Biosciences, San Jose Calif.). […] For samples assessed for CD45/CD3/CD8, cells were washed twice with flow buffer and incubated with fixation buffer for 10 minutes at 4° C. […] Samples assessed for CD45/CD4 were further processed for intracellular staining of FOXP3 using an anti-FOXP3 antibody (FOXP3-PE, BD Biosciences) and the FOXP3/Transcription Factor staining buffer set (eBiosciences, San Diego Calif.) following the manufacturer's protocol. […] Data were collected and analyzed using a BD Accuri C6 flow cytometer (BD Biosciences, San Jose Calif.). The ratio of TE to Treg cells was calculated by determining the percentage of CD3^+/CD8^+ cells present in the CD45^+ lymphocyte population and dividing by the percentage of CD4^+/FOXP3^+ present from the same population.

Cc1cc(Nc2cc(N)ncn2)c(=O)n2c1C(=O)NC21CCCCC1.Cl [Compound 107]
average TE:Treg ratio: 9.7
